Source: patent US20230066946A1, “1,5-DIPHENYLPYRAZOLYL-3-OXYALKYL ACIDS AND 1-PHENYL-5-THIENYLPYRAZOLYL-3-OXYALKYL ACIDS AND THE USE THEREOF FOR CONTROL OF UNWANTED PLANT GROWTH” (Bayer Aktiengesellschaft, priority 2019, published 2023)

Assays:
CYPES = assay: Pre-emergence herbicidal action against CYPES; type: in vivo, Cyperus esculentus; conditions: scored visually after about 3 weeks vs untreated controls, 100% = plants have died, 0% = like control plants
Source text: (§1) Seeds of mono- and dicotyledonous weed plants are placed in plastic pots in sandy loam soil (doubly sown with one species each of mono- or dicotyledonous weed plants per pot) and covered with soil. The compounds of the invention, formulated in the form of wettable powders (WP) or as emulsion concentrates (EC), are then applied onto the surface of the covering soil as aqueous suspension or emulsion with addition of 0.5% additive at a water application rate equivalent to 600 litres per hectare. After the treatment, the pots are placed in a greenhouse and kept under good growth conditions for the trial plants. After about 3 weeks, the effect of the preparations is scored visually in comparison with untreated controls as percentages. For example, 100% activity=the plants have died, 0% activity=like control plants. [table] Tables 4.1-4.15 below show the effects of selected compounds of the general formula (I) according to Tables 1 to 3 on various harmful plants at an application rate corresponding to 1280 or 320 g/ha, which have been obtained by the aforementioned experimental method.

AMARE [1] = assay: Pre-emergence herbicidal action against AMARE; type: in vivo, Amaranthus retroflexus; conditions: scored visually after about 3 weeks vs untreated controls; for Pre-emergence action at 320 g/ha against AMARE in %: 100% = plants have died, 0% = like control plants; for Pre-emergence action against AMARE in %: 1280 g/ha
Outline: (§2)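 Weed seeds were sown in sandy loam soil in pots and covered; compounds formulated as WP or EC were sprayed onto the covering soil as aqueous suspension/emulsion with 0.5% additive at 600 L/ha water. Application rate 1280 or 320 g/ha. Greenhouse grown; visual % activity vs untreated controls after about 3 weeks.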

MATIN [2] = assay: Pre-emergence herbicidal action against MATIN; type: in vivo, Matricaria inodora; conditions: 1280 g/ha, scored visually after about 3 weeks vs untreated controls
Outline: as §2

STEME [3] = assay: Pre-emergence herbicidal action against STEME; type: in vivo, Stellaria media; conditions: scored visually after about 3 weeks vs untreated controls
Outline: as §2

VIOTR [4] = assay: Pre-emergence herbicidal action against VIOTR; type: in vivo, Viola tricolor; conditions: 1280 g/ha, scored visually after about 3 weeks vs untreated controls
Source text: as §1

VERPE [5] = assay: Pre-emergence herbicidal action against VERPE; type: in vivo, Veronica persica; conditions: 320 g/ha, scored visually after about 3 weeks vs untreated controls
Outline: as §2

ALOMY [6] = assay: Post-emergence herbicidal action against ALOMY; type: in vivo, Alopecurus myosuroides; conditions: 1280 g/ha, post-emergence at one-leaf stage, rated visually after about 3 weeks vs untreated controls
Description: (§3) [table] Seeds of mono- and dicotyledonous weed plants are placed in plastic pots in sandy loam soil (twin sowing with one species each of mono- or dicotyledonous weed plants per pot), covered with soil and cultivated in a greenhouse under controlled growth conditions. 2 to 3 weeks after sowing, the test plants are treated at the one-leaf stage. The compounds of the invention, formulated in the form of wettable powders (WP) or as emulsion concentrates (EC), are applied to the green parts of the plants as aqueous suspension or emulsion with addition of 0.5% additive at a water application rate equivalent to 600 litres per hectare. After the test plants have been kept in the greenhouse under optimum growth conditions for about 3 weeks, the activity of the preparations is rated visually in comparison to untreated controls. For example, 100% activity=the plants have died, 0% activity=like control plants. Tables 5.1-5.16 below show the effects of selected compounds of the general formula (I) according to Tables 1 to 3 on various harmful plants at an application rate corresponding to 1280 or 320 g/ha, which have been obtained by the aforementioned experimental method.

ECHCG = assay: Post-emergence herbicidal action against ECHCG; type: in vivo, Echinochloa crus-galli; conditions: 1280 g/ha, post-emergence at one-leaf stage, rated visually after about 3 weeks vs untreated controls
Outline: (§4)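 Herbicidal effect, rated visually about 3 weeks after treatment as percent versus untreated controls. Test plants in sandy loam had received a foliar application at the one-leaf stage of 1280 or 320 g/ha, formulated as WP or EC with 0.5% additive in 600 litres per hectare water.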

AMARE [7] = assay: Post-emergence herbicidal action against AMARE; type: in vivo, Amaranthus retroflexus; conditions: visual rating about 3 weeks after treatment
Outline: as §4

MATIN [8] = assay: Post-emergence herbicidal action against MATIN; type: in vivo, Matricaria inodora; conditions: visual rating about 3 weeks after treatment
Outline: as §4

PHBPU = assay: Post-emergence herbicidal action against PHBPU; type: in vivo, Pharbitis purpurea; conditions: 320 g/ha, visual rating about 3 weeks after treatment
Outline: as §4

STEME [9] = assay: Post-emergence herbicidal action against STEME; type: in vivo, Stellaria media; conditions: visual rating about 3 weeks after treatment
Outline: as §4

harmful plants [10] = assay: Pre-emergence herbicidal action, summary of Tables 4.1-4.15; type: in vivo; conditions: result in words
Source text: as §1, with “plants.” for “plants. [table] Tables 4.1-4.15 below show the effects of selected compounds of the general formula (I) according to Tables 1 to 3 on various harmful plants at an application rate corresponding to 1280 or 320 g/ha, which have been obtained by the aforementioned experimental method.”
Tables 4.1-4.15 below show the effects of selected compounds of the general formula (I) according to Tables 1 to 3 on various harmful plants at an application rate corresponding to 1280 or 320 g/ha, which have been obtained by the aforementioned experimental method.
For example, compounds no. I-008, I-056, I-057, I-061, I-067, I-070 and I-072 applied by the pre-emergence method have very good action (80% to 100% herbicidal action) against harmful plants such as Alopecurus myosuroides, Amaranthus retroflexus, Matricaria inodora, Polygonum convolvulus, Setaria viridis and Stellaria media at an application rate of 1.28 kg of active substance or less per hectare.

harmful plants [11] = assay: Post-emergence herbicidal action, summary of Tables 5.1-5.16; type: in vivo; conditions: result in words
Description: as §3, with “Seeds” for “[table] Seeds”, “method. As the results from Tables 5.1-5.16 show, compounds of the invention have good herbicidal post-emergence efficacy against a broad spectrum of weed grasses and weeds. […] For example, compounds Nos. I-002, I-006, I-022, I-056 and I-072 applied by the post-emergence method have very good herbicidal action (80% to 100% herbicidal action) against harmful plants such as Alopecurus myosuroides, Amaranthus retroflexus, Matricaria inodora, Setaria viridis, Pharbitis purpurea and Stellaria media at an application rate of 1.28 kg of active substance or less per hectare.” for “method.”

SETVI [12] = assay: Post-emergence herbicidal action against SETVI; type: in vivo, Setaria viridis; conditions: 1280 g/ha, post-emergence at one-leaf stage, rated visually after about 3 weeks vs untreated controls
Outline: as §4

AVEFA = assay: Post-emergence herbicidal action against AVEFA; type: in vivo, Avena fatua; conditions: 1280 g/ha, post-emergence at one-leaf stage, rated visually after about 3 weeks vs untreated controls
Description: as §3

SETVI [13] = assay: Pre-emergence herbicidal action against SETVI; type: in vivo, Setaria viridis; conditions: 1280 g/ha, scored visually after about 3 weeks vs untreated controls
Outline: as §2

VIOTR [14] = assay: Post-emergence herbicidal action against VIOTR; type: in vivo, Viola tricolor; conditions: 320 g/ha, visual rating about 3 weeks after treatment
Outline: as §4

VERPE [15] = assay: Post-emergence herbicidal action against VERPE; type: in vivo, Veronica persica; conditions: 320 g/ha, visual rating about 3 weeks after treatment
Outline: as §4

ALOMY [16] = assay: Pre-emergence herbicidal action against ALOMY; type: in vivo, Alopecurus myosuroides; conditions: scored visually after about 3 weeks vs untreated controls, 100% = plants have died, 0% = like control plants
Source text: as §1

Compound | Pre-emergence action at 1280 g/ha against CYPES in % (CYPES) [%] | Pre-emergence action at 320 g/ha against AMARE in % (AMARE [1]) [%] | Pre-emergence action against AMARE in % (AMARE [1]) [%] | Pre-emergence action against MATIN in % (MATIN [2]) [%] | Pre-emergence action against STEME in % (STEME [3]; 1280 g/ha) [%] | Pre-emergence action against VERPE in % (VERPE [5]) [%] | Post-emergence action against ALOMY in % (ALOMY [6]) [%] | Post-emergence action against ECHCG in % (ECHCG) [%] | Post-emergence action against AMARE in % (AMARE [7]; 320 g/ha) [%] | Post-emergence action against AMARE in % (AMARE [7]; 1280 g/ha) [%] | Post-emergence action against MATIN in % (MATIN [8]; 1280 g/ha) [%] | Post-emergence action against PHBPU in % (PHBPU) [%] | Post-emergence action against STEME in % (STEME [9]; 320 g/ha) [%] | Post-emergence action against STEME in % (STEME [9]; 1280 g/ha) [%] | herbicidal efficacy against harmful plants in the case of pre-emergence treatment (harmful plants [10]) | herbicidal efficacy against harmful plants when applied post-emergence (harmful plants [11]) | Post-emergence action against SETVI in % (SETVI [12]) [%] | Post-emergence action against AVEFA in % (AVEFA) [%] | Pre-emergence action against SETVI in % (SETVI [13]) [%] | Post-emergence action against VERPE in % (VERPE [15]) [%] | also measured
COC(=O)COc1nn(-c2ccccc2)c(-c2cccc(F)c2)c1C#N [I-021] | 100 | 100 | 100 | 90 | 90 | 90 | 80 | 80 | 80 | 80 | 80 | 80 | 80 | 80 | good herbicidal efficacy | very good herbicidal efficacy |  |  |  |  | Pre-emergence action against VIOTR in % (VIOTR [4]): 90%
COC(=O)COc1nn(-c2ccc(F)cc2)c(-c2ccc(F)cc2)c1Cl [I-006] | 100 | 80 | 100 |  | 100 |  | 80 |  |  | 100 | 80 | 80 |  | 80 |  | very good herbicidal efficacy | 90 |  |  |  | 
COC(=O)COc1nn(-c2ccc(F)cc2)c(-c2ccc(F)cc2)c1C#N [I-009] |  |  |  |  |  |  |  |  |  | 80 |  |  |  |  |  |  | 80 | 80 |  |  | 
COC(=O)COc1nn(-c2ccc(F)cc2)c(-c2ccc(F)c(F)c2)c1Cl [I-025] |  | 90 | 90 |  |  | 80 |  |  | 80 | 80 | 80 |  |  |  |  |  |  | 80 | 80 | 80 | Post-emergence action against VIOTR in % (VIOTR [14]): 80%
COC(=O)COc1nn(-c2ccccc2)c(-c2cccc(F)c2)c1Cl [I-002] |  | 100 | 100 | 100 | 100 | 100 | 80 | 80 | 80 | 90 | 80 | 80 | 80 | 90 | good herbicidal efficacy | very good herbicidal efficacy | 80 |  |  | 80 | Pre-emergence action at 1280 g/ha against ALOMY in % (ALOMY [16]): 80%; Pre-emergence action against STEME in % (STEME [3]; 320 g/ha): 80%
COC(=O)COc1nn(-c2ccc(F)cc2)c(-c2ccc(F)c(F)c2)c1C#N [I-036] |  |  | 80 |  |  |  |  |  |  |  | 80 | 80 | 80 | 80 |  |  |  | 80 | 80 | 80 | Post-emergence action against MATIN in % (MATIN [8]; 320 g/ha): 80%; Post-emergence action against VIOTR in % (VIOTR [14]): 80%
